How the values were obtained:
Assay type in all cases: functional
[1] = system: HCT-116; assay: Cytotoxicity against human HCT116 cells assessed as cell growth at 1 uM after 48 hrs by sulforhodamine B assay relative to control; settings: HCT-116, 48 h, read-out: Activity
[2] = system: HCT-15; assay: Cytotoxicity against human HCT15 cells assessed as cell growth at 10 uM after 48 hrs by sulforhodamine B assay relative to control; settings: HCT-15, 48 h, read-out: Activity
[3] = system: NCI-H226; assay: Cytotoxicity against human NCI-H226 cells assessed as growth inhibition after 48 hrs by sulforhodamine B assay; settings: NCI-H226, 48 h
[4] = system: ACHN; assay: Cytotoxicity against human ACHN cells assessed as cell growth at 10 uM after 48 hrs by sulforhodamine B assay relative to control; settings: read-out: Activity
[5] = system: NCI-H522; assay: Cytotoxicity against human NCI-H522 cells assessed as cell growth at 0.1 uM after 48 hrs by sulforhodamine B assay relative to control; settings: NCI-H522, 48 h, read-out: Activity
[6] = system: HT-29; assay: Cytotoxicity against human HT-29 cells assessed as growth inhibition after 48 hrs by sulforhodamine B assay; settings: HT-29, 48 h
[7] = system: DU-145; assay: Cytotoxicity against human DU145 cells assessed as cell growth at 1 uM after 48 hrs by sulforhodamine B assay relative to control; settings: DU-145, 48 h, read-out: Activity
[8] = system: ACHN; assay: Cytotoxicity against human ACHN cells assessed as cell growth at 100 uM after 48 hrs by sulforhodamine B assay relative to control; settings: read-out: Activity
[9] = system: A498; assay: Cytotoxicity against human A498 cells assessed as growth inhibition after 48 hrs by sulforhodamine B assay; settings: A498, 48 h
[10] = system: CCRF-CEM; assay: Cytotoxicity against human CCRF-CEM cells assessed as cell growth at 0.1 uM after 48 hrs by sulforhodamine B assay relative to control; settings: read-out: Activity
[11] = system: HOP-62; assay: Cytotoxicity against human HOP62 cells assessed as cell growth at 100 uM after 48 hrs by sulforhodamine B assay relative to control; settings: HOP-62, 48 h, read-out: Activity
[12] = system: NCI/ADR-RES; assay: Cytotoxicity against human NCI/ADR-RES cells assessed as cell growth at 0.1 uM after 48 hrs by sulforhodamine B assay relative to control; settings: read-out: Activity
[13] = system: HOP-62; assay: Cytotoxicity against human HOP62 cells assessed as growth inhibition after 48 hrs by sulforhodamine B assay; settings: HOP-62, 48 h
[14] = system: SF-539; assay: Cytotoxicity against human SF539 cells assessed as cell growth at 0.01 uM after 48 hrs by sulforhodamine B assay relative to control; settings: SF-539, 48 h, read-out: Activity
[15] = system: OVCAR-4; assay: Cytotoxicity against human OVCAR4 cells assessed as cell growth at 0.1 uM after 48 hrs by sulforhodamine B assay relative to control; settings: OVCAR-4, 48 h, read-out: Activity
[16] = system: NCI-H460; assay: Cytotoxicity against human NCI-H460 cells assessed as cell growth at 100 uM after 48 hrs by sulforhodamine B assay relative to control; settings: NCI-H460, 48 h, read-out: Activity
[17] = system: SK-OV-3; assay: Cytotoxicity against human SKOV3 cells assessed as growth inhibition after 48 hrs by sulforhodamine B assay; settings: SK-OV-3, 48 h
[18] = system: MDA-MB-231; assay: Cytotoxicity against human MDA-MB-231 cells assessed as cell growth at 10 uM after 48 hrs by sulforhodamine B assay relative to control; settings: MDA-MB-231, 48 h, read-out: Activity
[19] = system: MOLT-4; assay: Cytotoxicity against human MOLT4 cells assessed as growth inhibition after 48 hrs by sulforhodamine B assay; settings: MOLT-4, 48 h; for CC50: read-out: LC50 (the source's name)
[20] = system: NCI-H460; assay: Cytotoxicity against human NCI-H460 cells assessed as cell growth at 10 uM after 48 hrs by sulforhodamine B assay relative to control; settings: NCI-H460, 48 h, read-out: Activity
[21] = system: HL-60(TB); assay: Cytotoxicity against human HL-60(TB) cells assessed as cell growth at 100 uM after 48 hrs by sulforhodamine B assay relative to control; settings: HL-60, 48 h, read-out: Activity
[22] = system: IGROV-1; assay: Cytotoxicity against human IGROV1 cells assessed as cell growth at 0.01 uM after 48 hrs by sulforhodamine B assay relative to control; settings: IGROV-1, 48 h, read-out: Activity
[23] = system: SK-MEL-28; assay: Cytotoxicity against human SK-MEL-28 cells assessed as cell growth at 100 uM after 48 hrs by sulforhodamine B assay relative to control; settings: SK-MEL-28, 48 h, read-out: Activity
[24] = system: SF-539; assay: Cytotoxicity against human SF539 cells assessed as cell growth at 10 uM after 48 hrs by sulforhodamine B assay relative to control; settings: SF-539, 48 h, read-out: Activity
[25] = system: KM12; assay: Cytotoxicity against human KM12 cells assessed as cell growth at 0.1 uM after 48 hrs by sulforhodamine B assay relative to control; settings: KM12, 48 h, read-out: Activity
[26] = system: SN12C; assay: Cytotoxicity against human SN12C cells assessed as cell growth at 0.01 uM after 48 hrs by sulforhodamine B assay relative to control; settings: read-out: Activity
[27] = system: MCF7; assay: Cytotoxicity against human MCF7 cells assessed as growth inhibition after 48 hrs by sulforhodamine B assay; settings: MCF7, 48 h
[28] = system: HCC 2998; assay: Cytotoxicity against human HCC2998 cells assessed as cell growth at 10 uM after 48 hrs by sulforhodamine B assay relative to control; settings: HCC 2998, 48 h, read-out: Activity
[29] = system: BT-549; assay: Cytotoxicity against human BT549 cells assessed as cell growth at 1 uM after 48 hrs by sulforhodamine B assay relative to control; settings: BT-549, 48 h, read-out: Activity
[30] = system: DU-145; assay: Cytotoxicity against human DU145 cells assessed as cell growth at 0.1 uM after 48 hrs by sulforhodamine B assay relative to control; settings: DU-145, 48 h, read-out: Activity
[31] = system: NCI-H23; assay: Cytotoxicity against human NCI-H23 cells assessed as cell growth at 0.01 uM after 48 hrs by sulforhodamine B assay relative to control; settings: NCI-H23, 48 h, read-out: Activity
[32] = system: DU-145; assay: Cytotoxicity against human DU145 cells assessed as cell growth at 100 uM after 48 hrs by sulforhodamine B assay relative to control; settings: DU-145, 48 h, read-out: Activity
[33] = system: HCC 2998; assay: Cytotoxicity against human HCC2998 cells assessed as cell growth at 1 uM after 48 hrs by sulforhodamine B assay relative to control; settings: HCC 2998, 48 h, read-out: Activity
[34] = system: OVCAR-5; assay: Cytotoxicity against human OVCAR5 cells assessed as growth inhibition after 48 hrs by sulforhodamine B assay; settings: OVCAR-5, 48 h
[35] = system: HL-60(TB); assay: Cytotoxicity against human HL-60(TB) cells assessed as cell growth at 1 uM after 48 hrs by sulforhodamine B assay relative to control; settings: HL-60, 48 h, read-out: Activity
[36] = system: HOP-62; assay: Cytotoxicity against human HOP62 cells assessed as cell growth at 0.01 uM after 48 hrs by sulforhodamine B assay relative to control; settings: HOP-62, 48 h, read-out: Activity

**Q.** Which results are given for `COc1ccc(-c2cc(/C=C/C(=O)c3ccc(N)cc3)[nH]n2)cc1`?
**A.** growth at 1 µM [1]: 67%; growth at 10 µM [2]: -40%; GI50 [3]: 2 µM; LC50 (concentration killing 50% of cells) [3]: 92.1 µM; TGI [3]: 5.57 µM; growth at 10 µM [4]: 2%; growth at 0.1 µM [5]: 85%; GI50 [6]: 2.75 µM; LC50 [6]: 74.1 µM; TGI [6]: 8.11 µM; growth at 1 µM [7]: 64%; growth at 100 µM [8]: -73%; GI50 [9]: 2.03 µM; LC50 [9]: 15.4 µM; TGI [9]: 4.95 µM; growth at 0.1 µM [10]: 98%; growth at 100 µM [11]: -60%; growth at 0.1 µM [12]: 99%; GI50 [13]: 2.8 µM; LC50 [13]: 61.2 µM; TGI [13]: 7.49 µM; growth at 0.01 µM [14]: 98%; growth at 0.1 µM [15]: 105%; growth at 100 µM [16]: -70%; GI50 [17]: 4.72 µM; LC50 [17]: 63.6 µM; TGI [17]: 18 µM; growth at 10 µM [18]: -7%; GI50 [19]: 2.32 µM; TGI [19]: 9.48 µM; CC50 [19]: > 100 µM; growth at 10 µM [20]: -40%; growth at 100 µM [21]: -47%; growth at 0.01 µM [22]: 98%; growth at 100 µM [23]: -81%; growth at 10 µM [24]: -61%; growth at 0.1 µM [25]: 97%; growth at 0.01 µM [26]: 93%; GI50 [27]: 0.78 µM; LC50 [27]: 34.1 µM; TGI [27]: 3.84 µM; growth at 10 µM [28]: -90%; growth at 1 µM [29]: 77%; growth at 0.1 µM [30]: 100%; growth at 0.01 µM [31]: 92%; growth at 100 µM [32]: -100%; growth at 1 µM [33]: 100%; GI50 [34]: 2.06 µM; LC50 [34]: 16 µM; TGI [34]: 4.92 µM; growth at 1 µM [35]: 61%; growth at 0.01 µM [36]: 107%

**Q.** Which results are given for `COc1ccc(C(=O)/C=C/c2cc(-c3ccc4c(c3)OCO4)n[nH]2)cc1OC`?
**A.** growth at 1 µM [1]: 87%; growth at 10 µM [2]: 6%; LC50 (concentration killing 50% of cells) [3]: > 100 µM; TGI [3]: 11.2 µM; growth at 10 µM [4]: 13%; growth at 0.1 µM [5]: 87%; LC50 [6]: > 100 µM; TGI [6]: 11.3 µM; growth at 1 µM [7]: 88%; growth at 100 µM [8]: -4%; LC50 [9]: 13.9 µM; TGI [9]: 4.23 µM; growth at 0.1 µM [10]: 99%; growth at 100 µM [11]: -80%; LC50 [13]: 25.8 µM; TGI [13]: 5.6 µM; growth at 0.01 µM [14]: 98%; growth at 0.1 µM [15]: 94%; growth at 100 µM [16]: -81%; LC50 [17]: > 100 µM; TGI [17]: 26.4 µM; growth at 10 µM [18]: -14%; TGI [19]: 10.3 µM; CC50 [19]: > 100 µM; growth at 10 µM [20]: -56%; growth at 100 µM [21]: -38%; growth at 0.01 µM [22]: 100%; growth at 100 µM [23]: -89%; growth at 10 µM [24]: -47%; growth at 0.1 µM [25]: 99%; growth at 0.01 µM [26]: 92%; GI50 [27]: 3.27 µM; LC50 [27]: > 100 µM; TGI [27]: 16.8 µM; growth at 10 µM [28]: 27%; growth at 1 µM [29]: 95%; growth at 0.1 µM [30]: 100%; growth at 0.01 µM [31]: 90%; growth at 100 µM [32]: -97%; growth at 1 µM [33]: 104%; LC50 [34]: > 100 µM; TGI [34]: 23.2 µM; growth at 1 µM [35]: 89%; growth at 0.01 µM [36]: 95%

Reference: ChEMBL document CHEMBL4138123, “Design, synthesis and biological evaluation of novel pyrazolochalcones as potential modulators of PI3K/Akt/mTOR pathway and inducers of apoptosis in breast cancer cells” (Eur J Med Chem, 2017)
